From publication PMC3897169 (MedChemComm, 2013)

Legend:
[1] = molecular target: T1, L3MBTL3 (Homo sapiens, UniProt Q96JM7); experiment: AlphaScreen methylated histone peptide competition assay; format: binding; conditions: compared with UNC2533; 12 and 13 after incubation time of 30 minutes
T1 sequence (Q96JM7 225-555 limits assumed): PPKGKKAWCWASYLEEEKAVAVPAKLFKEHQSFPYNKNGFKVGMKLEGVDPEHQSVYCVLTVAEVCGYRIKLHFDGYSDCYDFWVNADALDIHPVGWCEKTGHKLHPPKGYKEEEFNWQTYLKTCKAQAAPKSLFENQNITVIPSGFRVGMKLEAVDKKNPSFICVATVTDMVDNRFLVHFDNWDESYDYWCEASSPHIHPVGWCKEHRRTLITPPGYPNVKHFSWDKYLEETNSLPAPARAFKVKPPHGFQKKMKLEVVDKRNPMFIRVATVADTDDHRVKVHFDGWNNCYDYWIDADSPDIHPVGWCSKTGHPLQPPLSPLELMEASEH

[2] = molecular target: T1, L3MBTL3; experiment: Isothermal titration calorimetry; format: binding; conditions: compared with UNC2533

Row | Compound | Fold drop in L3MBTL3 activity (AlphaScreen) relative to UNC2533 [1] | Fold loss in L3MBTL3 activity by ITC relative to UNC2533 [2] [fold]
1 | c1cc(CN2CCCC2)ccc1CCN1CCCC1 [compound 7] | 20 fold | –
2 | c1cc(N2CCC(N3CCCC3)CC2)ccc1N1CCC(N2CCCC2)CC1 [compound 10] | about 5 fold | –
3 | N#CC1CCN(CCc2ccc(N3CCC(N4CCCC4)CC3)cc2)C1 (stereo not shown) [compound 12] | 5 fold | –
4 | O=C1CCN(CCc2ccc(N3CCC(N4CCCC4)CC3)cc2)C1 [compound 13] | 5 fold | –
5 | O=C(CCc1ccc(N2CCC(N3CCCC3)CC2)cc1)N1CCCC1 [compound 8] | more than 30 fold | –
6 | c1cc(N2CCC(N3CCCCC3)CC2)ccc1CCN1CCCC1 [compound 2] | 9 fold | 7
